Earlier results in patent publication US20030077328A1, “Method and composition for inhibiting post-surgical adhesions” (priority 1995, published 2003).

System: post-traumatic adhesion formation
Conditions: hamster; 0.1 to 10 mg/kg subcutaneously at 12-hour intervals

Q: Which “protection against post-traumatic adhesion formation” value does the source give for `CC(=O)CCCCn1c(=O)c2c(ncn2C)n(C)c1=O` [pentoxifylline] here?
A: provide protection against post-traumatic adhesion formation
